# According to US10759785B2, “Compounds” (ENTERPRISE THERAPEUTICS LIMITED, priority 2016, dated 2020):
# Counter-ions that a name gives are not always drawn.
# What was measured:
# Format in all cases: in vitro ADME
# [1] = Microsomal stability (human microsomes); settings: pH 7.4, 1 μM test compound, 0.5 mg/mL protein, 1 mM NADPH, 37° C., read-out: Averages. Mic Half Life Human
# Method: (§1) Example 28—Microsomal Stability
# (§2) Microsomes (rat and human) were obtained from Bioreclamation. Test compound stock solutions in DMSO (10 mM) were diluted with DMSO to 2 mM. Further dilution was completed to achieve a 100 μM stock (final concentrations; 91.5% Acetonitrile: 8.5% DMSO). Final test compound concentration in incubation was 1 μM (<0.1% DMSO). The following probe substrates were used: verapamil, propranolol, metoprolol and phenacetin (rat) at a final incubation concentration of 1 μM. Assay buffer—Solution 1: 17.4 g potassium phosphate dibasic anhydrous (K2HPO4, 0.1 M) dissolved in 1 L deionised water. Solution 2: 13.6 g potassium phosphate monobasic anhydrous (KH2PO4, 0.1 M) dissolved in 1 L deionised water. Potassium phosphate solutions 1 and 2 were combined to form a pH 7.42 solution at 37° C. pH 7.4 with 2 mM magnesium chloride. NADPH (10 mM)—diluted in deionised water. Frozen microsomes were thawed at 37° C. Microsomes were diluted in assay buffer to achieve a final protein concentration of 0.5 mg/mL and 1 mM NADPH. The following procedure was completed on a Perkin Elmer Janus robotic platform in 96 well format: The microsomal incubation plate was transferred to a heater shaker at 300 rpm and solution heated to 37° C. for 10 min pre-warm. A no co-factor control at 0 and 45 min and one replicates of each test compound was included in every assay. Microsomes were incubated at 37° C., on a shaker set at 300 rpm throughout the assay. At each timepoint (0, 5, 15, 30, 45 min) 50 μL of sample was removed from the 96-well and added to 200 μL of quench solution (acetonitrile containing 0.1% formic acid and imipramine/labetalol, 200 nM). Samples were diluted 1:1 with water using the Janus Robot and analysed by LC-MS/MS.
# [2] = Microsomal stability (rat microsomes); settings: pH 7.4, 1 μM test compound, 0.5 mg/mL protein, 1 mM NADPH, 37° C., read-out: Averages. Mic Half Life Rat
# Method: as §1, §2
# [3] = Hepatic stability (rat cryopreserved hepatocytes); settings: pH 7.4, 1 μM test compound, 1×10^6 cells/mL, 37° C., read-out: Averages. Hep Half Life Rat
# Method: Example 29—Hepatic Stability
# Cryopreserved hepatocytes (rat and human) were obtained from Bioreclamation. Test compound stock solutions in DMSO (10 mM) were diluted with DMSO to 4 mM. Further dilution was completed to achieve a 100 μM stock (5 μL of 4 mM in 195 μL of 50:50 DMSO:hepatocyte buffer). Final test compound concentration in incubation was 1 μM. The following probe substrates were used: testosterone and carbamazepine at a final incubation concentration of 1 μM. Hepatocyte buffer was prepared (Williams E media containing phenol red and Glutamax™, 15 mM HEPES, warmed to 37° C., pH7.4 with NaOH). Cells were removed from liquid nitrogen, thawed in a waterbath, decanted into 50 mL of pre-warmed Cryopreserved Hepatocyte Recovery Media (LifeTechnologies) and centrifuged. Supernatant fraction was removed, cells were re-suspended in hepatocyte buffer and counted by trypan blue exclusion. Cell viability of >80% was required for all assays. Cells were re-suspended to 1×10^6/mL and 198 μL cell suspension added to each 96-well. 2 μL of 100 μM compound stock solution was added to relevant wells to initiate the incubation. A no cell control and two replicates of each test compound was included in every assay. Cells were incubated at 37° C., on a shaker set at 300 rpm. At each timepoint (0, 15, 30, 45, 60, 90 min) 20 μL of sample was removed from the 96-well and added to 80 μL of quench solution (acetonitrile containing 0.1% formic acid and imipramine/labetalol, 200 nM). Samples were diluted 1:1 with water using the Janus Robot and analysed by LC-MS/MS.
half-life at 1 μM [1] [min],half-life at 1 μM [2] [min],half-life at 1 μM [3] [min],SMILES
> 138,> 138,59,"CCn1c(CNC(=O)c2nc(Br)cnc2N)[n+](CC)c2ccc(OCCN)cc21.Cl.[Cl-] [Example 25, 2-{[(3-Amino-6-bromopyrazin-2-yl)formamido]methyl}-6-(2-aminoethoxy)-1,3-diethyl-1H-1,3-benzodiazol-3-ium hydrochloride chloride]"
> 138,< 3,23,"CCn1c(CNC(=O)c2nc(C#N)cnc2N)[n+](CC)c2ccc(OC)cc21 [Example 26, 2-{[(3-amino-6-cyanopyrazin-2-yl)formamido]methyl}-1,3-diethyl-6-methoxy-1H-1,3-benzodiazol-3-ium formate]"
12,4,5,"CCn1c(CNC(=O)c2nc(Cl)cnc2N)[n+](C)c2ccc(OC)cc21.[I-] [Example 5, 2-{[(3-amino-6-chloropyrazin-2-yl)formamido]methyl}-1-ethyl-6-methoxy-3-methyl-1H-1,3-benzodiazol-3-ium iodide]"
89,4,13,"CCn1c(CNC(=O)c2nc(Br)cnc2N)[n+](CCO)c2ccc(OC)cc21.O=C[O-] [Example 3, 2-{[(3-amino-6-bromopyrazin-2-yl)formamido]methyl}-1-ethyl-3-(2-hydroxyethyl)-6-methoxy-1H-1,3-benzodiazol-3-ium formate]"
